Assays:
tau protein = target: T1, tau protein (Homo sapiens, UniProt P10636); experiment: Tau protein aggregation inhibition in tau-BiFC cell model; assay type: cell-based; conditions: tau-BiFC cells treated together with Forskolin, 48 hours
T1 construct: expressed in transfected cells
Summary of the method: (§1)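 Tau-BiFC cells co-treated 48 h with Forskolin ([…]) and compound at 0.03–30 μM. BiFC fluorescence quantified by imaging, IC50 by nonlinear regression; cytotoxicity as Hoechst-stained nuclei count relative to Forskolin-only wells (100% survival).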

Tau-BiFC cells = experiment: Cytotoxicity (cell survival rate) in tau-BiFC cells; conditions: group treated with Forskolin alone = 100%
Summary of the method: as §1

CYP1A2 = target: T2, CYP1A2 (Homo sapiens, UniProt P05177); experiment: Inhibition of CYP coenzyme activity in human liver microsomes; assay type: in vitro ADME; conditions: compound 10 PM (so in the source); human liver microsomes 0.25 mg/mL; substrate phenacetin; 15 minutes
T2 construct: human liver microsomes (0.25 mg/mL); from tissue; host or cells: human liver microsomes
T2 sequence (P05177 1-516): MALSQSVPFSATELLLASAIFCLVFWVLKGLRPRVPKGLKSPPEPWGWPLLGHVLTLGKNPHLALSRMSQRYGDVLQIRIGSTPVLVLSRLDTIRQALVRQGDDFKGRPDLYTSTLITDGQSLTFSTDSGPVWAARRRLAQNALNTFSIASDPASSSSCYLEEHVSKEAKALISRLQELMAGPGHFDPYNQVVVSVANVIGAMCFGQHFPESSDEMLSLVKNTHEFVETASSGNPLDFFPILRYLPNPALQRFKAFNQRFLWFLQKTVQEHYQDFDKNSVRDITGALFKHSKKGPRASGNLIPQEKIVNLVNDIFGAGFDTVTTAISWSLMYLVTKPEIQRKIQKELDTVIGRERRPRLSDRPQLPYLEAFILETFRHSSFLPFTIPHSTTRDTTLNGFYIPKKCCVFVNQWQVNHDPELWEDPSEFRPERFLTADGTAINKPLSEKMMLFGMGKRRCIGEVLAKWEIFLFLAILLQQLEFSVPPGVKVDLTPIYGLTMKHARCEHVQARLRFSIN
Summary of the method: (§2)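 Human liver microsomes (0.25 mg/mL) in 0.1 M phosphate pH 7.4 with a substrate cocktail (phenacetin 50 μM, diclofenac 10 μM, S-mephenytoin 100 μM, dextromethorphan 5 μM, midazolam 2.5 μM) and compound at 0 or 10 μM. Preincubated 5 min at 37 °C, then 15 min with NADPH system. Metabolites quantified by LC-MS/MS (MRM).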

CYP2C9 = target: T3, CYP2C9 (Homo sapiens, UniProt P11712); experiment: as above; assay type: in vitro ADME; conditions: compound 10 PM (so in the source); human liver microsomes 0.25 mg/mL; substrate diclofenac; 15 minutes
T3 construct: human liver microsomes (0.25 mg/mL); from tissue; host or cells: human liver microsomes
T3 sequence (P11712 whole entry): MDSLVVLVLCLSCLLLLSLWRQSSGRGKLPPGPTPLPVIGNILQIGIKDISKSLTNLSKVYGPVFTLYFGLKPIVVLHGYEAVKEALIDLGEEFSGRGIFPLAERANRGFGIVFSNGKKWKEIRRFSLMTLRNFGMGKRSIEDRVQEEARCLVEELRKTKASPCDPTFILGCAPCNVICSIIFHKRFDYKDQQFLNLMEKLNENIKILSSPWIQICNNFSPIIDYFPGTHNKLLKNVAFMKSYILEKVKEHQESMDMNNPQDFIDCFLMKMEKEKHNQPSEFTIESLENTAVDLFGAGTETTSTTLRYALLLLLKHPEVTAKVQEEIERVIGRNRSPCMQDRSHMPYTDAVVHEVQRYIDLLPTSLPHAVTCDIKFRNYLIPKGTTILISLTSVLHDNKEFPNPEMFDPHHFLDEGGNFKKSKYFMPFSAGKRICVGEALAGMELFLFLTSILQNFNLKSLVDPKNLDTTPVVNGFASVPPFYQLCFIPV
Summary of the method: as §2

CYP2D6 = target: T4, CYP2D6 (Homo sapiens, UniProt P10635); experiment: as above; assay type: in vitro ADME; conditions: compound 10 PM (so in the source); human liver microsomes 0.25 mg/mL; substrate dextromethorphan; 15 minutes
T4 construct: human liver microsomes (0.25 mg/mL); from tissue; host or cells: human liver microsomes
T4 sequence (P10635 whole entry): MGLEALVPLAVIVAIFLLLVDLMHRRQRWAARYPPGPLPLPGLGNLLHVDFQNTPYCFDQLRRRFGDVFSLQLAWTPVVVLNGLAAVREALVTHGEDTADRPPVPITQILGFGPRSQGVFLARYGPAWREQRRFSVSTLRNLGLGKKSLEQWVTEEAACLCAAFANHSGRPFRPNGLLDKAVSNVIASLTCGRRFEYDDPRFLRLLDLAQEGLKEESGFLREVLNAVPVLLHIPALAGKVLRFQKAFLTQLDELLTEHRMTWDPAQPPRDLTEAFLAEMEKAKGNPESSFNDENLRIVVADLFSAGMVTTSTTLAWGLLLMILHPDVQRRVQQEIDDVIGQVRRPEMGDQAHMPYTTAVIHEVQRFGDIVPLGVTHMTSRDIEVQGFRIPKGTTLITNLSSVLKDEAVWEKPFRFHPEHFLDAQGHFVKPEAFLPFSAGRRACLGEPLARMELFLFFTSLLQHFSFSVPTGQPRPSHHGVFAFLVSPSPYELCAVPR
Summary of the method: as §2

CYP3A4 = target: T5, CYP3A4 (Homo sapiens, UniProt P08684); experiment: as above; assay type: in vitro ADME; design: scale not given here; conditions: compound 10 PM (so in the source); human liver microsomes 0.25 mg/mL; substrate midazolam; 15 minutes
T5 construct: human liver microsomes (0.25 mg/mL); from tissue; host or cells: human liver microsomes
T5 sequence (P08684 whole entry): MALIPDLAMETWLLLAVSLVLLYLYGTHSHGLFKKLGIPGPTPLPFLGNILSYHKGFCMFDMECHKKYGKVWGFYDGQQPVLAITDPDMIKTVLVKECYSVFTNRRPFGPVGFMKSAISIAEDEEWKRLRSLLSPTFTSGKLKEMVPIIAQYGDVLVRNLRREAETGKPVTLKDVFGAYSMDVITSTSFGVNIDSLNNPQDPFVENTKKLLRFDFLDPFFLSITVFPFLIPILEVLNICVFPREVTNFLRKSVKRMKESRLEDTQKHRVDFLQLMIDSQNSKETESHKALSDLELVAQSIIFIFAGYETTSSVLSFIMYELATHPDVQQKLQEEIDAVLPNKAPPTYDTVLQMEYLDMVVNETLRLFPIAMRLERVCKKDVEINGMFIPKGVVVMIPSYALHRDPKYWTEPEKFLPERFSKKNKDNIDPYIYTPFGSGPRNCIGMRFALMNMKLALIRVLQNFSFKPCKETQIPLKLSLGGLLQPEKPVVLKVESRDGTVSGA
Summary of the method: as §2

[1] = Liver microsomal stability (human); assay type: in vitro ADME; conditions: amount of substrate remaining; 1 μM, 0.25 mg/mL microsomes, 37° C., 30 minutes
Summary of the method: (§3)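 Compound at 1 μM with microsomes (0.25 mg/mL each species) in 0.1 M phosphate buffer pH 7.4, preincubated 5 min at 37 °C, then 30 min at 37 °C after NADPH-generating system addition. Quenched with acetonitrile plus internal standard; remaining substrate measured by LC-MS/MS.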

[2] = Liver microsomal stability (dog); assay type: in vitro ADME; conditions: amount of substrate remaining; 1 μM, 0.25 mg/mL microsomes, 37° C., 30 minutes
Summary of the method: as §3

[3] = Liver microsomal stability (rat); assay type: in vitro ADME; conditions: amount of substrate remaining; 1 μM, 0.25 mg/mL microsomes, 37° C., 30 minutes
Summary of the method: as §3

T1 sequence (P10636 2-441 isoform P10636-8 limits assumed): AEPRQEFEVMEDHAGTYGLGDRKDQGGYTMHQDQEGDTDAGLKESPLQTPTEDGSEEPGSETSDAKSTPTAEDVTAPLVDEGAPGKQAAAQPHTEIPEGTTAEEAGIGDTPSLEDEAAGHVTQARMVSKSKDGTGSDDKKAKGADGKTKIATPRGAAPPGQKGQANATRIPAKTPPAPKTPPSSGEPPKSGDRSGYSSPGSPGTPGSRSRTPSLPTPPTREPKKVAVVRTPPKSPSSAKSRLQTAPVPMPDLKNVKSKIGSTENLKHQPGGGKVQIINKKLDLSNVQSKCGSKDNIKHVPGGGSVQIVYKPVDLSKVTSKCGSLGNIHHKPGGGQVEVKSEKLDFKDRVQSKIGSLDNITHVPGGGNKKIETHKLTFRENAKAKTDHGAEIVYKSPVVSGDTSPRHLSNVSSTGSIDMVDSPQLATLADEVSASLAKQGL

## N#CC(C#N)=NNc1ccc(-c2ncccn2)cc1 [Compound 1, (4-(pyrimidin-2-yl)phenyl)carbonohydrazonoyl dicyanide]
Tau protein
  IC50: 490 nM
Tau-BiFC cells
  Cell survival rate (% @ 10 μM): 74%
CYP1A2
  inhibition effects of CYP coenzyme activity, CYP1A2: 76.9
CYP2C9
  inhibition effects of CYP coenzyme activity, CYP2C9: 63.2
CYP2D6
  inhibition effects of CYP coenzyme activity, CYP2D6: 98.4
CYP3A4
  inhibition effects of CYP coenzyme activity, CYP3A4: 89.4
[1]
  liver microsomal stability, Human (%): 44.1%
[2]
  liver microsomal stability, Dog (%): 5.7%
[3]
  liver microsomal stability, Rat (%): 28.3%

## N#CC(C#N)=NNc1ccc(-c2cnc3ccnn3c2)cc1 [Compound 50, (4-(pyrazolo[1,5-a]pyrimidin-6-yl)phenyl)carbonohydrazonoyl dicyanide]
Tau protein
  IC50: 730 nM
Tau-BiFC cells
  Cell survival rate (% @ 10 μM): 76%
CYP1A2
  inhibition effects of CYP coenzyme activity, CYP1A2: 80.7
CYP2C9
  inhibition effects of CYP coenzyme activity, CYP2C9: 73
CYP2D6
  inhibition effects of CYP coenzyme activity, CYP2D6: >100
CYP3A4
  inhibition effects of CYP coenzyme activity, CYP3A4: 95
[1]
  liver microsomal stability, Human (%): 81.1%
[2]
  liver microsomal stability, Dog (%): 88.9%
[3]
  liver microsomal stability, Rat (%): 85.7%

## N#CC(C#N)=NNc1ccc(-c2ncc(F)cn2)cc1 [Compound 2, (4-(5-fluoropyrimidin-2-yl)phenyl)carbonohydrazonoyl dicyanide]
Tau protein
  IC50: 1300 nM
Tau-BiFC cells
  Cell survival rate (% @ 10 μM): 59%
CYP1A2
  inhibition effects of CYP coenzyme activity, CYP1A2: 84.3
CYP2C9
  inhibition effects of CYP coenzyme activity, CYP2C9: 57.7
CYP2D6
  inhibition effects of CYP coenzyme activity, CYP2D6: 74.3
CYP3A4
  inhibition effects of CYP coenzyme activity, CYP3A4: >100
[1]
  liver microsomal stability, Human (%): 92.7%
[2]
  liver microsomal stability, Dog (%): 92.1%
[3]
  liver microsomal stability, Rat (%): 97.2%

## Cc1ncc(-c2ccc(NN=C(C#N)C#N)cc2)s1 [Compound 11, (4-(2-methylthiazol-5-yl)phenyl)carbonohydrazonoyl dicyanide]
Tau protein
  IC50: 50 nM
Tau-BiFC cells
  Cell survival rate (% @ 10 μM): 146.2%
CYP1A2
  inhibition effects of CYP coenzyme activity, CYP1A2: 80.1
CYP2C9
  inhibition effects of CYP coenzyme activity, CYP2C9: 33.2
CYP2D6
  inhibition effects of CYP coenzyme activity, CYP2D6: 81.9
CYP3A4
  inhibition effects of CYP coenzyme activity, CYP3A4: 97.6
[1]
  liver microsomal stability, Human (%): 87.5%
[2]
  liver microsomal stability, Dog (%): 79.6%
[3]
  liver microsomal stability, Rat (%): 49.6%

## Cc1cnc(C(=O)Nc2nc3ccc(NN=C(C#N)C#N)cc3s2)cn1 [Compound 93, (2-(5-methylpyrazine-2-carboxamido)benzo[d]thiazol-6-yl)carbonohydrazonoyl dicyanide]
Tau protein
  IC50: 60 nM
Tau-BiFC cells
  Cell survival rate (% @ 10 μM): 129.2%
CYP1A2
  inhibition effects of CYP coenzyme activity, CYP1A2: 80.7
CYP2C9
  inhibition effects of CYP coenzyme activity, CYP2C9: 45.5
CYP2D6
  inhibition effects of CYP coenzyme activity, CYP2D6: 85.6
CYP3A4
  inhibition effects of CYP coenzyme activity, CYP3A4: 91.5
[1]
  liver microsomal stability, Human (%): 83.9%
[2]
  liver microsomal stability, Dog (%): 60.4%
[3]
  liver microsomal stability, Rat (%): 63.3%
